Reference: US4923882A, “Novel amine derivatives, salts thereof and an anti-ulcer agent containing the same” (Toyama Chemical Co., Ltd., priority 1982, dated 1990)

Assays:
gastric acid secretion [1] = assay: Inhibitory effect on gastric acid secretion, pylorus ligation method (histamine); format: in vivo, Wistar strain rats; settings: Rattus norvegicus, oral, histamine 25 mg/kg s.c., read-out: Inhibition percentage (gastric acid secretion)
Protocol: Five to six Wistar strain rats (male, 190 to 230 g) per group were starved for 35 hours, after which each drug was orally administered, and after 2 hours, the pylorus of each rat was ligated under ether anesthesia. […] After 3 hours, each rat was killed, after which the cardiac portion was ligated, and the stomach was removed. After 1 ml of distilled water was injected into the stomach, the gastric juice was collected by centrifugation and its volume was measured. The acidity of the gastric juice was measured by titrating 1 ml of the gastric juice with a 0.1N aqueous sodium hydroxide solution, taking pH 7.0 as the end-point. Physiological saline was administered to a control group.
The inhibition percentage of gastric acid secretion was determined from the following equation: [formula]

gastric acid secretion [2] = assay: Inhibitory effect on gastric acid secretion, perfused stomach preparation of anesthetized rat (histamine stimulated); format: in vivo, Wistar strain rats; settings: intravenous; for ED100: Rattus norvegicus, cumulative, histamine 30 μg/kg/min, read-out: Dose for complete inhibition; for Duration: time from complete inhibition until pH of perfusate became 4
Protocol: (i) Perfused stomach preparation of anesthetized rat [according to M. N. Ghosh and H. O. Schild: Brit. J. Pharmacol. 13, 54 (1958)]
Wistar strain rats (male, 200 to 250 g) starved for 18 hours were anesthetized with urethane and then subjected to laparotomy, after which the forestomach region of the stomach of each rat was incised. The whole interior of the stomach was sufficiently washed with physiological saline, and the cut edges were sutured. A silicon tube was inserted into the stomach to a length of about 5 mm from the duodenum side and fixed. Subsequently, the stomach was perfused with physiological saline adjusted to a pH of about 10 with an aqueous sodium hydroxide solution at a constant rate (1 ml/min) through an oral sonde, and the change in pH of the perfusate which had flowed out through the silicone tube was continuously recorded. During the perfusion, histamine (30 μg/kg/min) was continuously injected, as an agent for stimulating gastric acid secretion, through the femoral vein at a rate of 0.3 ml/min. Each drug was intravenously administered when the acid secretion became almost constant (pH 3.3±0.2), and cumulatively administered when the inhibition of acid secretion at each dose reached a plateau.
The number of experiments was three for each dose.

| Structure (SMILES) | inhibition in vivo at 3 mg/kg (gastric acid secretion [1]) [%] | ED100 (gastric acid secretion [2]) [mg/kg] | Duration (gastric acid secretion [2]) [min] | inhibition in vivo at 1 mg/kg (gastric acid secretion [1]) [%] |
| --- | --- | --- | --- | --- |
| O=[N+]([O-])C=C(NCCCOc1cccc(CN2CCCCC2)c1)NCC(O)c1ccc(Cl)cc1 (centres unmarked) [compound 16, N-[2-(4-chlorophenyl)-2-hydroxyethyl]-2-nitro-N'-[3-(3-piperidinomethylphenoxy)propyl]-1,1-ethenediamine] | 89 | 0.1 | 304 | – |
| N#CNC(=NCC(O)c1ccccc1)NCCSCc1csc(NC(=N)N)n1 (stereo not drawn) [compound 1, N-cyano-N'-{2-[(2-guanidino-4-thiazolyl)methylthio]ethyl}-N"-(β-hydroxyphenethyl)guanidine] | – | 0.3 | > 210 | – |
| O=[N+]([O-])C=C(NCCCOc1cccc(CN2CCCCC2)c1)NCC(O)c1cccc(C(F)(F)F)c1 (centres unmarked) [compound 27, N-[2-hydroxy-2-(3-trifluoromethylphenyl)ethyl]-2-nitro-N'-[3-(3-piperidinomethylphenoxy)propyl]-1,1-ethenediamine] | – | 0.3 | > 210 | – |
| Cc1ccccc1C(O)CNC(=C[N+](=O)[O-])NCCCOc1cccc(CN2CCCCC2)c1 (centres unmarked) [compound 44, N-[2-hydroxy-2-(2-methylphenyl)ethyl]-2-nitro-N'-[3-(3-piperidinomethylphenoxy)propyl]-1,1-ethenediamine] | – | – | – | 75 |
| CSc1ccc(C(O)CNC(=C[N+](=O)[O-])NCCCOc2cccc(CN3CCCCC3)c2)cc1 (centres unmarked) [compound 26, N-[2-hydroxy-2-(4-methylthiophenyl)ethyl]-2-nitro-N'-[3-(3-piperidinomethylphenoxy)propyl]-1,1-ethenediamine] | – | 0.3 | > 240 | – |
| Cc1cc(CSCCNC(=C[N+](=O)[O-])NCC(O)c2ccc(F)cc2F)sc1CN(C)C (centres unmarked) [compound 35, N-{2-[[5-(dimethylamino)methyl-4-methyl-2-thienyl]methylthio]ethyl}-N'-[2-(2,4-difluorophenyl)-2-hydroxyethyl]-2-nitro-1,1-ethenediamine] | – | – | – | 47 |
| O=[N+]([O-])C=C(NCCCOc1cccc(CN2CCCCC2)c1)NCC(O)c1cccc(F)c1 (centres unmarked) [compound 43, N-[2-(3-fluorophenyl)-2-hydroxyethyl]-2-nitro-N'-[3-(3-piperidinomethylphenoxy)propyl]-1,1-ethenediamine] | – | – | – | 51 |
| Cc1cc(CSCCNC(=C[N+](=O)[O-])NCC(O)c2c(F)cccc2F)sc1CN(C)C (centres unmarked) [compound 34, N-{2-[[5-(dimethylamino)methyl-4-methyl-2-thienyl]methylthio]ethyl}-N'-[2-(2,6-difluorophenyl)-2-hydroxyethyl]-2-nitro-1,1-ethenediamine] | 71 | – | – | – |
| NC(N)=Nc1nc(CSCCNC(=C[N+](=O)[O-])NCC(O)c2ccccc2)cs1 (centres unmarked) [compound 2] | – | 0.1 | > 160 | – |
| CN(C)Cc1ccc(CSCCNC(=C[N+](=O)[O-])NCC(O)c2ccc(F)cc2)o1 (centres unmarked) [compound 38, N-{2-[[5-(dimethylamino)methyl-2-furyl]methylthio]ethyl}-N'-[2-(4-fluorophenyl)-2-hydroxyethyl]-2-nitro-1,1-ethenediamine] | – | – | – | 41 |
| Cc1cc(CSCCNC(=C[N+](=O)[O-])NCC(O)c2cccc(Cl)c2)sc1CN(C)C (centres unmarked) [compound 28, N-[2-(3-chlorophenyl)-2-hydroxyethyl]-N'-{2-[[5-(dimethylamino)methyl-4-methyl-2-thienyl]methylthio]ethyl}-2-nitro-1,1-ethenediamine] | – | 0.1 | 205 | – |
| COc1cccc(C(O)CNC(=C[N+](=O)[O-])NCCSCc2ccc(CN(C)C)o2)c1 (centres unmarked) [compound 23, N-{2-[[5-(dimethylamino)methyl-2-furyl]methylthio]ethyl}-N'-[2-hydroxy-2-(3-methoxyphenyl)ethyl]-2-nitro-1,1-ethenediamine] | – | 0.15 | 242 | – |
| Cc1cc(CSCCNC(=C[N+](=O)[O-])NCC(O)c2ccc(O)cc2)sc1CN(C)C (centres unmarked) [compound 10, N-{2-[[5-(dimethylamino)methyl-4-methyl-2-thienyl]methylthio]ethyl}-N'-[2-hydroxy-2-(4-hydroxyphenyl)ethyl]-2-nitro-1,1-ethenediamine] | – | 0.18 | 175 | – |
| COc1ccc(C(O)CNC(=C[N+](=O)[O-])NCCSCc2ccc(CN(C)C)o2)cc1 (centres unmarked) [compound 37, N-{2-[[5-(dimethylamino)methyl-2-furyl]methylthio]ethyl}-N'-[2-hydroxy-2-(4-methoxyphenyl)ethyl]-2-nitro-1,1-ethenediamine] | 77 | – | – | – |
| Cc1cc(CSCCNC(=C[N+](=O)[O-])NCC(O)c2ccc(F)cc2)sc1CN(C)C (centres unmarked) [compound 41, N-{2-[[5-(dimethylamino)methyl-4-methyl-2-thienyl]methylthio]ethyl}-N'-[2-(4-fluorophenyl)-2-hydroxyethyl]-2-nitro-1,1-ethenediamine] | – | – | – | 65 |
| Nc1ccc(C(O)CNC(=C[N+](=O)[O-])NCCCOc2cccc(CN3CCCCC3)c2)cc1 (centres unmarked) [compound 45, N-[2-(4-aminophenyl)-2-hydroxyethyl]-2-nitro-N'-[3-(3-piperidinomethylphenoxy)propyl]-1,1-ethenediamine] | – | – | – | 65 |
| O=[N+]([O-])C=C(NCCCOc1cccc(CN2CCCCC2)c1)NCC(O)c1cccnc1 (centres unmarked) [compound 19, N-[2-hydroxy-2-(3-pyridyl)ethyl]-2-nitro-N'-[3-(3-piperidinomethylphenoxy)propyl]-1,1-ethenediamine] | – | 0.1 | 164 | – |
| O=[N+]([O-])C=C(NCCCOc1cccc(CN2CCCCC2)c1)NCC(O)c1ccc(F)c(F)c1 (centres unmarked) [compound 30, N-[2-(3,4-difluorophenyl)-2-hydroxyethyl]-2-nitro-N'-[3-(3-piperidinomethylphenoxy)propyl]1,1-ethenediamine] | – | 0.15 | > 240 | – |
| CS(=O)(=O)NC(=NCCCOc1cccc(CN2CCCCC2)c1)NCC(O)c1ccccc1 (stereo not drawn) [compound 21, N-(β-hydroxyphenethyl)-N'-methanesulfonyl-N"-[3-(3-piperidinomethylphenoxy)propyl]guanidine] | – | 0.1 | > 240 | – |
| Cc1ccccc1C(O)CNC(=C[N+](=O)[O-])NCCSCc1ccc(CN(C)C)o1 (centres unmarked) [compound 39, N-{2-[[5-(dimethylamino)methyl-2-furyl]methylthio]ethyl}-N'-[2-hydroxy-2-(2-methylphenyl)ethyl]-2-nitro-1,1-ethenediamine] | 90 | – | – | – |
| CCc1cccc(C(O)CNC(=C[N+](=O)[O-])NCCSCc2cc(C)c(CN(C)C)s2)c1 (centres unmarked) [compound 31, N-{2-[[5-(dimethylamino)methyl-4-methyl-2-thienyl]methylthio]ethyl}-N'-[2-(3-ethylphenyl)-2-hydroxyethyl]-2-nitro-1,1-ethenediamine] | – | 0.3 | 226 | – |
| O=[N+]([O-])C=C(NCCCOc1cccc(CN2CCCCC2)c1)NCC(O)c1ccc([N+](=O)[O-])cc1 (centres unmarked) [compound 20, N-[2-hydroxy-2-(4-nitrophenyl)ethyl]-2-nitro-N'-[3-(3-piperidinomethylphenoxy)propyl]-1,1-ethenediamine] | – | – | > 210 | – |
| CSc1ccc(C(O)CNC(=C[N+](=O)[O-])NCCSCc2ccc(CN(C)C)o2)cc1 (centres unmarked) [compound 24, N-{2-[[5-(dimethylamino)methyl-2-furyl]methylthio]ethyl}-N'-[2-hydroxy-2-(4-methylthiophenyl)ethyl]-2-nitro-1,1-ethenediamine] | – | 0.2 | > 240 | – |
| CN(C)Cc1ccc(CSCCNC(=C[N+](=O)[O-])NC[C@@H](O)c2ccc(O)cc2)o1 [compound 22, N-{2-[[5-(dimethylamino)methyl-2-furyl]methylthio]ethyl}-N'-[S(+)-2-hydroxy-2-(4-hydroxyphenyl)ethyl]-2-nitro-1,1-ethenediamine] | – | 0.04 | 136 | – |
| O=[N+]([O-])C=C(NCCCOc1cccc(CN2CCCCC2)c1)NCC(O)c1ccccc1F (centres unmarked) [compound 36, N-[2-(2-fluorophenyl)-2-hydroxyethyl]-2-nitro-N'-[3-(3-piperidinomethylphenoxy)propyl]-1,1-ethenediamine] | 85 | – | – | – |
| CN(C)Cc1ccc(CSCCNC(=C[N+](=O)[O-])NCC(O)c2ccc(F)c(F)c2)o1 (centres unmarked) [compound 25, N-{2-[[5-(dimethylamino)methyl-2-furyl]methylthio]ethyl}-N'-[2-(3,4-difluorophenyl)-2-hydroxyethyl]-2-nitro-1,1-ethenediamine] | – | 0.1 | > 240 | – |
| CN(C)Cc1ccc(CSCCNC(=C[N+](=O)[O-])NCC(O)c2cccnc2)o1 (centres unmarked) [compound 8, N-{2-[[5-(dimethylamino)methyl-2-furyl]methylthio]ethyl}-N'-[2-hydroxy-2-(3-pyridyl)ethyl]-2-nitro-1,1-ethenediamine] | – | 0.3 | 200 | – |
